The text below walks through data of publication PMC3538380 (Stem cells (Dayton, Ohio), 2013).

The term pIC50 denotes the IC50 on a negative log10 scale, so that one unit is a factor of ten. A higher pIC50 goes with a low IC50. One may read the inhibition as the relative decrease from the control value, in per cent.

pIC50: −log10 of the molar value.

Test [1] has as its target purified GAPDH enzyme from rabbit muscle (Oryctolagus cuniculus, UniProt P46406). Nature of the test: GAPDH enzymatic assay, NADH fluorescence. In kind it is biochemical.
Another test addresses GAPDH in GSC11 cells (Homo sapiens, UniProt P04406). Description: GAPDH activity in lysate of treated cells, NADH fluorescence. It counts as cell-based.

Sequence of GAPDH in GSC11 cells (P04406 2-335): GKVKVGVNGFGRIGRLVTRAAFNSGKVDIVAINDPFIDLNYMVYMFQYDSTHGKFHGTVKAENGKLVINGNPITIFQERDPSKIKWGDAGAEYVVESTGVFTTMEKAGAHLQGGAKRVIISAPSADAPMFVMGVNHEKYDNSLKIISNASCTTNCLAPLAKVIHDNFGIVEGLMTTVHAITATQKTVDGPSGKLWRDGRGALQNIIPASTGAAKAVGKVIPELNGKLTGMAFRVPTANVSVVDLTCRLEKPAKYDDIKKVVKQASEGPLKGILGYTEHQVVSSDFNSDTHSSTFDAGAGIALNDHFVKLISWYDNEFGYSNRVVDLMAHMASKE
Sequence of purified GAPDH enzyme from rabbit muscle (P46406 whole entry): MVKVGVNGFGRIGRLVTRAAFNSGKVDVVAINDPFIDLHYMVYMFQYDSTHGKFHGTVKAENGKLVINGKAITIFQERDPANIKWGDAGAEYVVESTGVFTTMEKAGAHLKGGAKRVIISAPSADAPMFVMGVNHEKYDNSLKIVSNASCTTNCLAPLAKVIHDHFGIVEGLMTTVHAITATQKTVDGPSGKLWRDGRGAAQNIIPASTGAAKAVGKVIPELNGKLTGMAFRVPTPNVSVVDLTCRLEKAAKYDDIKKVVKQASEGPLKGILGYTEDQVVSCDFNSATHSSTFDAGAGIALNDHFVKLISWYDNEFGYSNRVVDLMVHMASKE

Regarding `CCCOC(=O)C(=O)CBr` [3-BrOP, 3-bromo-2-oxopropionate-1-propyl ester], the negative logarithm of the IC50 (pIC50) in test [1] is around 5.00. At GAPDH in GSC11 cells (read-out: % inhibition at 10 μM), the inhibition at 10 µM is around 60%.

On to `O=NN(CCCl)C(=O)NCCCl` [BCNU], for which the pIC50 in test [1] was around 3.70. For the same compound, the inhibition at 200 µM on GAPDH in GSC11 cells (read-out: % inhibition at 200 μM) was around 60%.
